# From US20190290769A1, “Hydrogel Compositions” (The Trustees of the University of Pennsylvania, priority 2018, published 2019)
# System: T3565 cultured glioma stem cell
# Experiment: MTS assay of valproic acid on glioma stem cell viability
# Format: cell-based
# Details: T3565 cells, varying concentrations
# Text: In vitro testing of valproic acid on glioma stem cell and non-stem cells.
smiles,measurement,value
CCCC(CCC)C(=O)O [valproic acid],IC50,600 µg/mL
